The source of these data is US20250101470A1, “METHOD FOR IMPROVING THE YIELD OF ERINACINE A BY LIQUID FERMENTATION OF HERICIUM ERINACEUS” (Zhejiang University of Technology, priority 2023, published 2025).

In this test the test system is Hericium erinaceus strain ACCC50268. As to the kind of experiment: Liquid fermentation of Hericium erinaceus with an inducer added; mycelium weighed, Erinacine A in methanol extract measured by HPLC. It counts as cell-based. The settings on record: for effect on Erinacine A yield (in words): 5 mg/L added on 5th day; for increase of Erinacine A content in the mycelium: 5 mg/L inducer versus no inducer (0.19±0.05 mg/g dry mycelium); for increase of Erinacine A yield: 5 mg/L inducer versus no inducer (4.48±0.96 mg/L). The protocol:
The strain number of a Hericium erinaceus strain is ACCC50268; source: China Agricultural Culture Collection and Management Center.
(S.1) A strain of Hericium erinaceus was subcultured for 3 generations to achieve strain activation. The subculture temperature is 25-28° C., and the optimal culture temperature in this example is 28° C., and the time is 14 days, so that the entire inclined plane can be grown to obtain a slope strain. The components of PDA inclined medium are: potato extract, 15-25 g of glucose, 10-15 g of agar powder, and the volume is set to 1 L with water. In this example, the optimal PDA inclined medium components are as follows: potato extract, 20 g of glucose, 15 g of agar powder, and the volume is determined to 1 L with water;
(S.2) The slope strains obtained in step (S.1) were inoculated into the primary liquid seed medium for culture. One vial of bevel strains was inoculated into two vials of primary liquid seed medium. The components of liquid seed medium are: glucose 25-35 g, soybean meal powder 15-30 g, potassium dihydrogen phosphate 0.5-2 g, magnesium sulfate 0-1 g, and the balance is water. The culture conditions of liquid seed medium are: 1-10 days at 25-28° C. and 130-160 rpm in the dark. In this example, the optimal liquid seed medium components are as follows: glucose 30 g, soybean meal powder 20 g, potassium dihydrogen phosphate 1 g, magnesium sulfate 0.5 g, and the balance is water. The medium was fixed to 1 L with purified water, and the prepared liquid seed medium was loaded into a 500 mL Erlenmeyer flask with a liquid volume of 200 mL, and cultured at 27° C. and 140 rpm for 7 days in the dark, and the liquid seeds of Hericium erinaceus were obtained.
(S.3) the liquid seeds obtained in step (S.2) are inoculated into the liquid fermentation medium for liquid fermentation culture, the ratio of the liquid seed inoculation volume of Hericium erinaceus to the volume of the liquid fermentation medium is 8-12.5% (i.e., the inoculation amount of Hericium erinaceus liquid seeds is 8-12.5%), and the optimal inoculation amount of Hericium erinaceus liquid seeds in this example is 10%. The components of liquid fermentation medium are: glucose 25-50 g, yeast powder 10-30 g, potassium dihydrogen phosphate 0.5-2 g, magnesium sulfate 0-1 g, and the balance is water. The culture conditions of liquid fermentation medium are: 1-10 days at 25-28° C. and 130-160 rpm in the dark. In this example, the optimal liquid fermentation medium components are as follows: 30 g of glucose, 30 g of yeast powder, 1 g of potassium dihydrogen phosphate, 0.5 g of magnesium sulfate, and the balance is water. The medium was fixed to 1 L with distilled water, and the prepared liquid seed medium was packed into a 500 mL Erlenmeyer flask with a liquid volume of 200 mL, and incubated at 27° C. and 140 rpm for 7 days in the dark. […]
seeds of Hericium erinaceus obtained in step (S.2) into liquid fermentation medium for liquid fermentation, […] fermentation medium to a concentration of 5 mg/L. […] After the end of fermentation, the medium was filtered through 80 mesh gauze, washed with water three times, and then dried overnight at 60° C. with hot air to obtain Hericium erinaceus mycelium;
(S.4) The Hericium erinaceus mycelium obtained in step (S.3) was crushed, and 1 g of Hericium erinaceus mycelium dry powder was added to 20 mL of 80% methanol, heated and ultrasonicated. The reaction conditions for ultrasonic extraction of Erinacine A are as follows: ultrasonic power is 200-350 W, heating reaction temperature is 50-70° C., and ultrasonic reaction time is 40-90 min. In this example, the reaction conditions for the optimal ultrasonic extraction of Erinacine A are as follows: ultrasonic extraction at 60° C. and ultrasonic power of 300 W for 60 min. The supernatant was centrifuged to obtain an alcohol extract containing Erinacine A. The alcohol extract was filtered through a 0.22 μm filter membrane and then analyzed in liquid phase. […]

Where [1] appears, read: 5 mg/L, added on 4th day, 6 days induction fermentation.
The mark [2] stands for this setting: 5 mg/L, added on 5th day, 3 days induction fermentation.
The mark [3] stands for this setting: 5 mg/L, added on 5th day, 5 days induction fermentation.
Where [4] appears, read: 5 mg/L, added on 5th day, 8 days induction fermentation.
Where [5] appears, read: 5 mg/L, added on 6th day, 6 days induction fermentation.
The mark [6] stands for this setting: 5 mg/L, added on 7th day, 6 days induction fermentation.
Where [7] appears, read: 5 mg/L, added on 8th day, 6 days induction fermentation.
Where [8] appears, read: 5 mg/L, added on third day, 6 days induction fermentation.
The mark [9] stands for this setting: 10 mg/L, added on 5th day, 6 days induction fermentation.
Where [10] appears, read: 50 mg/L, added on 5th day, 6 days induction fermentation.
Setting [11] is: inducer 5 mg/L in liquid fermentation medium, added on 5th day, 6 days induction fermentation.
The mark [12] stands for this setting: inducer 5 mg/L in liquid fermentation medium, added on 5th day, 6 days induction fermentation, listed as Example 1.
[13] abbreviates: 1 mL of the substance (purity greater than 95%) added on 5th day, 6 days induction fermentation.
Setting [14] is: inducer 5 mg/L in liquid fermentation medium, added on 5th day, 6 days induction fermentation, listed as Example 2.
The mark [15] stands for this setting: 1 mg/L, added on 5th day, 6 days induction fermentation.
The mark [16] stands for this setting: 5 mg/L, added on 5th day, 1 day induction fermentation.
[17] abbreviates: 5 mg/L, added on 5th day, 2 days induction fermentation.
Setting [18] is: 5 mg/L, added on 5th day, 4 days induction fermentation.
Where [19] appears, read: 20 mg/L, added on 5th day, 6 days induction fermentation.

Several values for one entry are separate records, joined by “and”; a condition that tells them apart may be missing. Identical values can stand only once.

Consider `C[n+]1ccc(-c2cc[n+](C)cc2)cc1` [methyl viologen], for which the “increase of Erinacine A content in the mycelium” value is on record as “about 115.47 times” and the “increase of Erinacine A yield” value is on record as “about 92.60 times”. Also, the “effect on Erinacine A yield (in words)” value (6 days induction fermentation) is recorded as “significantly increased the yield of Erinacine A”. Also, under setting [1], the “Erinacine A content” value is 1.52 ± 0.30 mg/g dried mycelium, the “Erinacine A yield” value is on record as 22.18 ± 3.84 mg/L and the Mycelium yield is on record as 2.00 ± 0.84 g/L. Moreover, under setting [2], the “Erinacine A content” value amounted to 2.29 ± 0.52 mg/g dried mycelium, the “Erinacine A yield” value was 40.30 ± 7.52 mg/L and the Mycelium yield is listed as 17.68 ± 0.50 g/L. Moreover, under setting [3], the “Erinacine A content” value is reported as 16.58 ± 0.43 mg/g dried mycelium, the “Erinacine A yield” value came out at 276.77 ± 4.72 mg/L and the Mycelium yield was found to be 5.45 ± 1.39 g/L. Under setting [4], the “Erinacine A content” value turned out to be 8.97 ± 2.33 mg/g dried mycelium, the “Erinacine A yield” value is on record as 179.50 ± 62.29 mg/L and the Mycelium yield worked out at 19.79 ± 0.76 g/L. Further, under setting [5], the “Erinacine A content” value was 2.98 ± 1.16 mg/g dried mycelium, the “Erinacine A yield” value came out at 69.29 ± 30.01 mg/L and the Mycelium yield is recorded as 23.05 ± 1.08 g/L. For the same compound, under setting [6], the “Erinacine A content” value worked out at 2.68 ± 0.66 mg/g dried mycelium, the “Erinacine A yield” value is listed as 61.60 ± 10.06 mg/L and the Mycelium yield was 23.22 ± 1.93 g/L. Besides, under setting [7], the “Erinacine A content” value was determined as 0.57 ± 0.12 mg/g dried mycelium, the “Erinacine A yield” value stood at 13.29 ± 2.55 mg/L and the Mycelium yield worked out at 23.28 ± 0.57 g/L. Under setting [8], the “Erinacine A content” value amounted to 0.05 ± 0.01 mg/g dried mycelium, the “Erinacine A yield” value is 0.41 ± 0.06 mg/L and the Mycelium yield worked out at 8.64 ± 1.54 g/L. Also, under setting [9], the “Erinacine A content” value turned out to be 20.61 ± 3.21 mg/g dried mycelium, the “Erinacine A yield” value is 400.44 ± 69.30 mg/L and the Mycelium yield was found to be 7.40 ± 0.36 g/L. Further, under setting [10], the “Erinacine A content” value was 0.21 ± 0.04 mg/g dried mycelium, the “Erinacine A yield” value is on record as 3.71 ± 1.06 mg/L and the Mycelium yield is 17.71 ± 1.29 g/L. Besides, under setting [11], the “Erinacine A content” value was 21.94±2.40 mg/g dried mycelium, the “Erinacine A yield” value was 414.84 ± 30.03 mg/L and the Mycelium yield came to 18.96 ± 0.69 g/L. Moreover, under setting [12], the “Erinacine A content” value was determined as 94.94 ± 2.40 mg/g dried mycelium; the “Erinacine A yield” value is 414.84 ± 30.03 mg/L and 418.84 ± 30.03 mg/L. Also, under “methyl viologen solution added at different times”, the “effect on liquid fermentation growth of Hericium erinaceus (in words)” value is given as “inhibitory effect on the liquid fermentation growth of Hericium erinaceus”.
On to `CCCCCCCC/C=C\CCCCCCCC(=O)O` [oleic acid], for which the “effect on synthesis of Erinacine A (in words)” value (1 mL added on the 5th day of liquid fermentation) is reported as “did not show obvious stimulating effects”. In addition, under setting [13], the “Erinacine A content” value was 0.20 ± 0.10 mg/g dried mycelium, the “Erinacine A yield” value was found to be 4.70 ± 2.16 mg/L and the Mycelium yield worked out at 23.72 ± 1.04 g/L.
For the compound `C=C(C)[C@H]1Cc2c(ccc3c2O[C@@H]2COc4cc(OC)c(OC)cc4[C@@H]2C3=O)O1` [rotenone], the “increase of Erinacine A content in the mycelium” value was “about 2.52 times” and the “increase of Erinacine A yield” value is “about 2.06 times”. Besides, under “6 days induction fermentation”, the “effect on Erinacine A yield (in words)” value was “positive effect on the increase of Erinacine A yield”. In addition, under setting [11], the “Erinacine A content” value is 0.67 mg/g dried mycelium and 0.67±0.04 mg/g dried mycelium; the “Erinacine A yield” value was 13.72 mg/L and 13.72 ± 0.24 mg/L; the Mycelium yield was found to be 8.50 ± 1.69 g/L. Under setting [14], the “Erinacine A content” value is given as 0.67 ± 0.04 mg/g dried mycelium and the “Erinacine A yield” value was 13.72 ± 0.24 mg/L.
For methyl viologen, the “Erinacine A content” value by setting is: under setting [15], 0.63 ± 0.09 mg/g dried mycelium; under setting [16], 0.07 ± 0.01 mg/g dried mycelium; under setting [17], 0.68 ± 0.27 mg/g dried mycelium; under setting [18], 5.49 ± 1.60 mg/g dried mycelium; under setting [19], 1.50 ± 0.38 mg/g dried mycelium. Further, the “Erinacine A yield” value is, setting by setting: under setting [15], 13.93 ± 4.56 mg/L; under setting [17], 12.53 ± 3.82 mg/L; under setting [18], 103.99 ± 18.67 mg/L; under setting [19], 29.47 ± 7.44 mg/L. Further, the Mycelium yield is given as 9.49 ± 2.94 g/L under setting [15], 20.16 ± 0.85 g/L under setting [16], 17.94 ± 1.68 g/L under setting [17] and 19.61 ± 0.48 g/L under setting [19].
